{
  "source": "paper PMC8316002",
  "about": "“Inhibition of Escherichia coli Lipoprotein Diacylglyceryl Transferase Is Insensitive to Resistance Caused by Deletion of Braun’s Lipoprotein” (Journal of Bacteriology, 2021)",
  "key": {"WT CFT073": {"system": "WT CFT073", "assay": "MIC assay, WT CFT073 (Table 1)", "assay_type": "cell-based, E. coli", "settings": "average of two independent experiments, each in duplicates, CLSI", "description": "(§1) Unless stated otherwise, E. coli cells were grown in Luria-Bertani (LB) medium (0.5% yeast extract, 1% tryptone, 0.5% NaCl) at 37°C. Where indicated, kanamycin (Kan) was added to culture media at a 50-μg/ml final concentration. MIC assays were performed based on Clinical and Laboratory Standards Institute (CLSI) guidelines. For in vitro growth curves, overnight cultures of WT CFT073, CFT073 Δlgt, and CFT073 Δlgt complemented with lgt from E. coli (lgt^Ec) or P. aeruginosa (lgt^Pa) were grown to mid-exponential phase (optical density at 600 nm [OD600] of 0.6) and then diluted to an OD600 of 0.1 to initiate growth curves. At various times, culture aliquots were diluted and plated in dilutions on LB+Kan agar, and CFU were enumerated in duplicates. Growth of MG1655 inducible deletion strains was measured by culturing in the presence of 2-fold dilutions of arabinose (starting arabinose concentrations for CFT073 and MG1655 inducible deletion strains were 4% and 0.8%, respectively). While […] was sufficient for WT growth of MG1655 Δlgt, 4% arabinose was used for CFT073 Δlgt based on comparing its growth to that of WT CFT073 as measured by CFU. OD600 growth measurements were performed using an EnVision 2101 multilabel reader plate reader (PerkinElmer) linked with Echo liquid handler (Labcyte). For time-kill experiments, bacteria were harvested in mid-exponential phase and treated with 12.5 μM G2824, 3.2 μM globomycin, and 1.6 μM vancomycin. CFU were enumerated at various times posttreatment. Bacterial culture medium containing 2% arabinose was used to induce lpp or lppΔK expression from pBad24 plasmids. Bacterial viability at different time points during the treatment was measured by enumerating CFU. Serum killing assays were carried out as previously described ([17])."}, "CFT073 Δlgt [1]": {"system": "CFT073 Δlgt", "assay": "MIC assay, CFT073 Δlgt, Lgt 4% Ara", "assay_type": "cell-based, E. coli", "settings": "Escherichia coli", "description": "as §1"}, "CFT073 Δlgt [2]": {"system": "CFT073 Δlgt", "assay": "MIC assay, CFT073 Δlgt, Lgt 0.25% Ara", "assay_type": "cell-based, E. coli", "description": "as §1"}, "Lgt": {"system": "Lgt", "assay": "Lgt-dependent diacylglyceryl modification of peptide substrate (MS, SDS-PAGE)", "assay_type": "biochemical, E. coli"}, "BW25113 cells, lgt gRNA": {"system": "BW25113 cells, lgt gRNA", "assay": "CRISPRi knockdown sensitization, lgt gRNA", "assay_type": "cell-based, E. coli", "settings": "2 μM G2824, 0.05 μM globomycin or 0.016 μM ciprofloxacin; OD600 relative to untreated, versus scr or folA gRNA", "excerpt": "(§2) The two-plasmid bacterial CRISPRi system pdCas9-bacteria_GNE and PGNRNA-bacteria_GNE are based on the AddGene plasmids 44249 and 44251 ([73]), respectively. The plasmid was synthesized in smaller DNA fragments (500 bp to 3 kb) (IDT gBlocks) and assembled by Gibson assembly (NEB) according to the manufacturer’s protocols. Plasmids were confirmed by sequencing (ELIM Bio). gRNAs were designed to target the 5′ end of the gene on the nontemplate strand using Benchling CRISPR software ([74]). gRNAs were cloned into PGNRNA-bacteria using Gibson assembly (NEB) according to the manufacturer’s protocols and sequence confirmed (ELIM Bio).\n(§3) Bacterial cultures were grown overnight on LB agar supplemented with carbenicillin (50 μg/ml) and chloramphenicol (12.5 μg/ml) to maintain both plasmids, pdCas9-bacteria and PGNRNA-bacteria with each gRNA as appropriate. Cells were scraped from the plate into fresh medium. The OD600 was measured, and the culture was subsequently diluted to an OD600 0.001 in the presence or absence of G2824, globomycin, or ciprofloxacin. Two hundred microliters was transferred to a 96-well plate (Corning) and monitored for growth by measuring the OD600 (EnVision multimode plate reader; PerkinElmer). All treatments were performed in triplicates. The specificity of CRISPRi downregulation was measured using reverse transcriptase quantitative PCR (RT-qPCR)."}, "BW25113 cells, lspA gRNA": {"system": "BW25113 cells, lspA gRNA", "assay": "CRISPRi knockdown sensitization, lspA gRNA", "assay_type": "cell-based, E. coli", "settings": "2 μM G2824, 0.05 μM globomycin or 0.016 μM ciprofloxacin; OD600 relative to untreated, versus scr or folA gRNA", "excerpt": "as §2, §3"}},
  "data": [
    {"molecule": "CC1(C)S[C@@H]2[C@H](NC(=O)Cc3ccccc3)C(=O)N2[C@H]1C(=O)O", "note": "[Penicillin G]", "values": [
      {"measurement": "MIC", "setting": "WT CFT073; Escherichia coli", "value": "> 50", "unit": "µM"},
      {"measurement": "MIC", "setting": "CFT073 Δlgt [1]", "value": "> 50", "unit": "µM"},
      {"measurement": "MIC", "setting": "CFT073 Δlgt [2]; Escherichia coli", "value": 0.8, "unit": "µM"}
    ]},
    {"molecule": "Cc1onc(-c2ccccc2)c1C(=O)N[C@@H]1C(=O)N2[C@@H]1SC(C)(C)[C@@H]2C(=O)O", "note": "[Oxacillin]", "values": [
      {"measurement": "MIC", "setting": "WT CFT073; Escherichia coli", "value": "> 100", "unit": "µM"},
      {"measurement": "MIC", "setting": "CFT073 Δlgt [1]", "value": "> 100", "unit": "µM"},
      {"measurement": "MIC", "setting": "CFT073 Δlgt [2]; Escherichia coli", "value": 12.5, "unit": "µM"}
    ]},
    {"molecule": "MQLNKVLKGLMIALPVMAIAACSSNKN [Pal-IAAC, peptide substrate derived from the Pal lipoprotein]", "values": [
      {"measurement": "diacylglyceryl modification by SDS-PAGE", "setting": "Lgt; SDS-PAGE, Coomassie blue", "value": "is Lgt dependent"},
      {"measurement": "diacylglyceryl modification, mass addition", "setting": "Lgt; mass spectrometry, Lgt dependent", "value": 552, "unit": "Da"}
    ]},
    {"molecule": "CCn1cc(C(=O)O)c(=O)c2cc(F)c(N3CCNCC3)cc21", "note": "[Norfloxacin]", "values": [
      {"measurement": "MIC", "setting": "WT CFT073; Escherichia coli", "value": 0.4, "unit": "µM"},
      {"measurement": "MIC", "setting": "CFT073 Δlgt [1]", "value": 0.6, "unit": "µM"},
      {"measurement": "MIC", "setting": "CFT073 Δlgt [2]; Escherichia coli", "value": 0.2, "unit": "µM"}
    ]},
    {"molecule": "Cc1c(N)nc([C@H](CC(N)=O)NC[C@H](N)C(N)=O)nc1C(=O)N[C@H](C(=O)N[C@H](C)[C@@H](O)[C@H](C)C(=O)N[C@H](C(=O)NCCC1=N[C@@H](c2nc(C(=O)NCCCCN=C(N)N)cs2)CS1)[C@@H](C)O)[C@@H](O[C@@H]1O[C@@H](CO)[C@@H](O)[C@H](O)[C@@H]1O[C@H]1O[C@H](CO)[C@@H](O)[C@H](OC(N)=O)[C@@H]1O)c1cnc[nH]1", "note": "[Zeocin]", "values": [
      {"measurement": "MIC", "setting": "WT CFT073", "value": 12.5, "unit": "µM"},
      {"measurement": "MIC", "setting": "CFT073 Δlgt [2]; CFT073 Δlgt, Lgt 0.25% Ara (low Lgt level), average of two independent experiments, each in duplicates, CLSI", "value": 0.8, "unit": "µM"}
    ]},
    {"molecule": "O=C(O)c1cn(C2CC2)c2cc(N3CCNCC3)c(F)cc2c1=O", "note": "[ciprofloxacin]", "values": [
      {"measurement": "sensitization by decreased lgt expression", "setting": "BW25113 cells, lgt gRNA", "value": "did not lead to increased sensitivity"},
      {"measurement": "sensitization by decreased lspA expression", "setting": "BW25113 cells, lspA gRNA", "value": "did not lead to increased sensitivity"}
    ]},
    {"molecule": "CO[C@H]1/C=C/O[C@@]2(C)Oc3c(C)c(O)c4c(O)c(cc(O)c4c3C2=O)NC(=O)/C(C)=C\\C=C\\[C@H](C)[C@H](O)[C@@H](C)[C@@H](O)[C@@H](C)[C@H](OC(C)=O)[C@@H]1C", "note": "[Rifamycin]", "values": [
      {"measurement": "MIC", "setting": "WT CFT073; Escherichia coli", "value": 6.3, "unit": "µM"},
      {"measurement": "MIC", "setting": "CFT073 Δlgt [2]; Escherichia coli", "value": 0.8, "unit": "µM"}
    ]}
  ]
}
